Measured values from patent US20180206495A1, “SUBSTITUTED ARYL AND HETEROARYL CARBOXYLIC ACID HYDRAZIDES OR SALTS THEREOF AND USE THEREOF TO INCREASE STRESS TOLERANCE IN PLANTS” (BAYER CROPSCIENCE AKTIENGESELLSCHAFT, priority 2015, published 2018).

Key:
Triticum aestivum = assay: In vivo analyses Part B: drought stress, spray application, appearance vs stressed control in categories, Triticum aestivum; parameters: key: 0: no positive effect; +: slight positive effect; ++: clear positive effect; +++: strong positive effect
Procedure: (§1) Seeds of monocotyledonous and dicotyledonous crop plants were sown in sandy loam in plastic pots, covered with soil or sand and cultivated in a greenhouse under good growth conditions. The test plants are treated at the early leaf stage (BBCH10-BBCH13). To assure uniform water supply before commencement of stress, the potted plants were supplied with water by dam irrigation prior to substance application. The inventive compounds were first formulated as wettable powders (WP) or dissolved in a solvent mixture. The further dilution was effected with water supplemented with 0.2% wetting agent (e.g. agrotin). The finished spray liquor was sprayed onto the green parts of the plant at an equivalent water application rate of 600 l/ha. Substance application was followed immediately by stress treatment of the plants. Drought stress was induced by gradual drying out under the following conditions: “Day”: 14 hours with illumination at ˜26-30° C. “Night”: 10 hours without illumination at ˜18-20° C. The duration of the respective stress phases was guided mainly by the condition of the stressed control plants. It was ended (by re-irrigating and transfer to a greenhouse with good growth conditions) as soon as irreversible damage was observed on the stressed control plants. The end of the stress phase was followed by an about 4-7-day recovery phase, during which the plants were once again kept under good growth conditions in a greenhouse. The duration of the recovery phase was guided mainly by when the trial plants had attained a state which enabled visual scoring of potential effects, and was therefore variable. Once this juncture had been reached, the appearance of the plants treated with test substances was recorded in comparison to the stressed control plants by the following categories: • 0 no positive effect • + slight positive effect • ++ clear positive effect • +++ strong positive effect In order to rule out any influence on the effects observed by any fungicidal or insecticidal action of the test compounds, it was additionally ensured that the tests proceeded without fungal infection or insect infestation. The values reported in tables B-1 and B-2 below are mean values of the results from at least three repeats. Effects of selected compounds of the general formula (I) under drought stress according to the following tables B-1 and B-2: […]

Brassica napus = assay: In vivo analyses Part B: drought stress, spray application, appearance vs stressed control in categories, Brassica napus; parameters: key: 0: no positive effect; +: slight positive effect; ++: clear positive effect; +++: strong positive effect
Procedure: as §1

| SMILES | Effect (TRZAS) (Triticum aestivum; dosage 250 g/ha) | Effect (BRSNS) (Brassica napus; dosage 250 g/ha) | other results |
| --- | --- | --- | --- |
| CN(C)N(Cc1ccc(Cl)nc1)C(=O)c1ccccc1C(F)(F)F [A1-94, N-[(6-Chloropyridin-3-yl)methyl]-N′,N′-dimethyl-2-(trifluoromethyl)benzohydrazide] | + |  |  |
| CN(C)N(Cc1ccc(C#N)cc1)C(=O)c1cnccc1C(F)(F)F [B1-63] |  | +++ |  |
| CN(C)N(Cc1cccc(C#N)c1)C(=O)c1cnccc1C(F)(F)F [B1-62] | + | ++ |  |
| CCN(C)N(Cc1ccccc1C#N)C(=O)c1ccccc1C(F)(F)F [A5-61] | + |  |  |
| CN(C)N(Cc1nccc(Cl)c1Cl)C(=O)c1ccccc1Cl [A10-40] |  | ++ |  |
| COc1ccccc1C(=O)N(Cc1ccc(F)cc1F)N(C)C [A8-15] |  | + | Effect (TRZAS) (Triticum aestivum; dosage 25 g/ha): ++ |
| CN(C)N(Cc1cccnc1C#N)C(=O)c1ccccc1I [A36-679] | + | + |  |
| CN(C)N(Cc1ccc(Cl)nc1)C(=O)c1ccc(Cl)cc1Cl [A12-94] | + |  | Effect (BRSNS) (Brassica napus; dosage 25 g/ha): + |
| CN(C)N(Cc1ccc(Cl)nc1Cl)C(=O)c1ccc(F)cc1C(F)(F)F [A14-99] |  | + | Effect (TRZAS) (Triticum aestivum; dosage 25 g/ha): + |
| CN(C)N(Cc1ccc(C#N)cc1)C(=O)c1ccccc1I [A36-63] | + |  |  |
| CN(C)N(Cc1cccc(C#N)c1)C(=O)c1ccccc1C(F)(F)F [A1-62] |  |  | Effect (BRSNS) (Brassica napus; dosage 25 g/ha): ++ |
| CN(C)N(Cc1c(Cl)cc(Cl)cc1Cl)C(=O)c1ccccc1I [A36-10] | + |  |  |
| CN(C)N(Cc1ccccc1C(F)(F)F)C(=O)c1ccccc1C(F)(F)F [A1-81] | + |  | Effect (BRSNS) (Brassica napus; dosage 25 g/ha): + |
| CN(C)N(Cc1ccccc1Cl)C(=O)c1cncnc1C(F)(F)Cl [E3-1] |  |  | Effect (BRSNS) (Brassica napus; dosage 25 g/ha): +; Effect (TRZAS) (Triticum aestivum; dosage 25 g/ha): + |
| CN(C)N(Cc1ccc(Cl)nc1)C(=O)c1cncnc1C(F)(F)F [E1-94] | + |  |  |
| CCN(CC)N(Cc1ccccn1)C(=O)c1cnccc1C(F)(F)F [B2-21, N′,N′-Diethyl-N-(pyridin-2-ylmethyl)-4-(trifluoromethyl)nicotinohydrazide] | + |  |  |
| CN(C)N(Cc1ccc(Cl)nc1)C(=O)c1ccccc1Cl [A10-94] |  | + |  |
| CN(C)N(Cc1cccnc1C#N)C(=O)c1cnccc1C(F)(F)F [B1-679] |  | ++ |  |
| CN(C)N(Cc1ccccc1C(F)(F)F)C(=O)c1ccccc1I [A36-81] | + |  |  |
| CN(C)N(Cc1cc(Cl)c(Cl)cc1Cl)C(=O)c1ccc(F)cc1C(F)(F)F [A14-138] |  |  | Effect (BRSNS) (Brassica napus; dosage 25 g/ha): +; Effect (TRZAS) (Triticum aestivum; dosage 25 g/ha): + |
| CN(C)N(Cc1ncc(C(F)(F)F)cc1Cl)C(=O)c1ccc(Cl)cc1C(F)(F)F [A51-36] |  | + | Effect (TRZAS) (Triticum aestivum; dosage 25 g/ha): + |
| CN(C)N(Cc1ncc(C(F)(F)F)cc1Cl)C(=O)c1ccc(C#N)cc1C(F)(F)F [A48-36] |  |  | Effect (BRSNS) (Brassica napus; dosage 25 g/ha): ++ |
| CN(C)N(Cc1ccccc1C#N)C(=O)c1ccccc1I [A36-61] | + | + |  |
| CN(C)N(Cc1ccccc1Cl)C(=O)c1ccc(Cl)cc1C(F)(F)F [A51-1] | + |  |  |

| SMILES | Effect (TRZAS) (Triticum aestivum; dosage 250 g/ha) | Effect (BRSNS) (Brassica napus; dosage 250 g/ha) | other results |
| --- | --- | --- | --- |
| CN(C)N(Cc1ccc(Cl)nc1)C(=O)c1ccc(C(F)(F)F)nc1 [B5-94] |  |  | Effect (TRZAS) (Triticum aestivum; dosage 25 g/ha): + |
| CN(C)N(Cc1ccc(C(F)(F)F)cc1Cl)C(=O)c1ccc(F)cc1C(F)(F)F [A14-91] |  | + | Effect (TRZAS) (Triticum aestivum; dosage 25 g/ha): + |
| CN(C)N(Cc1ccccn1)C(=O)c1ccc(C(F)F)nc1 [B6-21] | + |  |  |
| COc1ccccc1C(=O)N(Cc1ncc(C(F)(F)F)cc1Cl)N(C)C [A8-36] |  |  | Effect (TRZAS) (Triticum aestivum; dosage 25 g/ha): ++ |
| CN(C)N(Cc1c(Cl)c(Cl)c(C(F)(F)F)c(Cl)c1Cl)C(=O)c1ccc(F)cc1C(F)(F)F [A14-680] |  | ++ |  |
| CN(C1CCCCC1)N(Cc1ccccn1)C(=O)c1cnccc1C(F)(F)F [B18-21] |  |  | Effect (TRZAS) (Triticum aestivum; dosage 25 g/ha): + |
| CN(C)N(Cc1ccccn1)C(=O)c1ccc(C(F)(F)F)nc1 [B5-21] |  | + |  |
| CN(C)N(Cc1ccccc1C#N)C(=O)c1cncnc1C(F)(F)Cl [E3-61] | + |  |  |
| CN(C)N(Cc1ccc(Cl)cc1Cl)C(=O)c1ccc(F)cc1C(F)(F)F [A14-5] |  |  | Effect (TRZAS) (Triticum aestivum; dosage 25 g/ha): + |
| CN(C)N(Cc1ccccc1C#N)C(=O)c1ccc(Cl)cc1C(F)(F)F [A51-61] |  |  | Effect (BRSNS) (Brassica napus; dosage 25 g/ha): ++; Effect (TRZAS) (Triticum aestivum; dosage 25 g/ha): + |
| CCN(C)N(Cc1nccc(Cl)c1Cl)C(=O)c1ccccc1C(F)(F)F [A5-40] | + | + |  |
| Cc1ccc(C(=O)N(Cc2ncc(C(F)(F)F)cc2Cl)N(C)C)c(C(F)(F)F)c1 [A50-36, N-[3-Chloro-5-(trifluoromethyl)pyridin-2-yl-methyl]-N′,N′-dimethyl-2-(trifluoromethyl)-4-methylbenzohydrazide] |  |  | Effect (BRSNS) (Brassica napus; dosage 25 g/ha): + |
| CN(C)N(Cc1nccc(Cl)c1Cl)C(=O)c1cnccc1C(F)(F)F [B1-40] |  | + |  |
| CN(C)N(Cc1ncccn1)C(=O)c1ccccc1I [A36-27] |  | + |  |
| CN(C)N(Cc1ccccc1C#N)C(=O)c1ccc(C(F)F)nc1 [B6-61] | + |  |  |
| Cc1ccc(C(=O)N(Cc2nccc(Cl)c2Cl)N(C)C)c(C(F)(F)F)c1 [A50-40] | + |  | Effect (BRSNS) (Brassica napus; dosage 25 g/ha): ++ |
| CN(C)N(Cc1ncc(C(F)(F)F)cc1Cl)C(=O)c1ccc(F)cc1F [A52-36] | + |  | Effect (BRSNS) (Brassica napus; dosage 25 g/ha): +++ |
| CCN(C)N(Cc1nccc(Cl)c1Cl)C(=O)c1cnccc1C(F)(F)F [B17-40] | + |  |  |
| COc1ccccc1C(=O)N(Cc1ccc(Cl)nc1)N(C)C [A8-94] |  |  | Effect (TRZAS) (Triticum aestivum; dosage 25 g/ha): + |
| CN(C)N(Cc1ccc(Cl)nc1)C(=O)c1cnccc1C(F)(F)F [B1-94] | + |  |  |
| CN(C)N(Cc1c(F)cccc1F)C(=O)c1cnccc1C(F)(F)F [B1-17] | + | ++ |  |
| CN(C)N(Cc1ccccc1C#N)C(=O)c1cnccc1C(F)(F)F [B1-61] |  | ++ |  |
| CN(C)N(Cc1cccnc1C#N)C(=O)c1ccccc1Cl [A10-679] |  | ++ |  |
| CN(C)N(Cc1ccccc1Cl)C(=O)c1ccc(C(F)(F)F)nc1 [B5-1] | + |  |  |

| SMILES | Effect (TRZAS) (Triticum aestivum; dosage 250 g/ha) | Effect (BRSNS) (Brassica napus; dosage 250 g/ha) | other results |
| --- | --- | --- | --- |
| CN(C)N(Cc1ccccc1Cl)C(=O)c1ccc(C#N)cc1C(F)(F)F [A48-1] | + |  | Effect (BRSNS) (Brassica napus; dosage 25 g/ha): +++ |
| CN(C)N(Cc1c(Cl)cccc1Cl)C(=O)c1cnccc1C(F)(F)F [B1-7] | + | +++ |  |
| CN(C)N(Cc1cccnc1C#N)C(=O)c1ccccc1C(F)(F)F [A1-679] | + |  | Effect (BRSNS) (Brassica napus; dosage 25 g/ha): + |
| CN(C)N(Cc1ccccc1C#N)C(=O)c1ccc(C(F)(F)F)nc1 [B5-61] |  |  | Effect (BRSNS) (Brassica napus; dosage 25 g/ha): +; Effect (TRZAS) (Triticum aestivum; dosage 25 g/ha): + |
| CN(C)N(Cc1nccc(Cl)c1Cl)C(=O)c1ccccc1I [A36-40] | + |  |  |
| CCN(C)N(Cc1ccccc1C#N)C(=O)c1cnccc1C(F)(F)F [B17-61] |  | + |  |
| CN(C)N(Cc1ccccn1)C(=O)c1cncnc1C(F)(F)F [E1-21] |  |  | Effect (TRZAS) (Triticum aestivum; dosage 25 g/ha): + |
| CN(C)N(Cc1c(F)cccc1F)C(=O)c1ccccc1Cl [A10-17] |  | + |  |
| Cc1ccc(C(=O)N(Cc2ccccc2C#N)N(C)C)c(C(F)(F)F)c1 [A50-61] |  |  | Effect (BRSNS) (Brassica napus; dosage 25 g/ha): + |
| CN(C1CCCCC1)N(Cc1ccccc1Cl)C(=O)c1cnccc1C(F)(F)F [B18-1] |  |  | Effect (TRZAS) (Triticum aestivum; dosage 25 g/ha): ++ |
| CN(C)N(Cc1ccccc1Cl)C(=O)c1ccc(C(F)F)nc1 [B6-1] |  |  | Effect (TRZAS) (Triticum aestivum; dosage 25 g/ha): ++ |
| CN(C)N(Cc1ncccn1)C(=O)c1ccccc1C(F)(F)F [A1-27] |  | ++ |  |
| CCN(CC)N(Cc1cccc(Cl)c1Cl)C(=O)c1ccccc1C(F)(F)F [A2-4, N-(2,3-Dichlorobenzyl)-N′,N′-diethyl-2-(trifluoromethyl)benzohydrazide] | + |  |  |
| CN(C)N(Cc1c(Cl)cccc1Cl)C(=O)c1ccccc1I [A36-7] | + |  |  |
| CN(C)N(Cc1c(F)cccc1F)C(=O)c1ccccc1C(F)(F)F [A1-17] |  |  | Effect (BRSNS) (Brassica napus; dosage 25 g/ha): ++ |
| CN(C)N(Cc1ccc(C#N)cc1)C(=O)c1ccccc1C(F)(F)F [A1-63] |  | + |  |
| CN(C1CCCCC1)N(Cc1ccccn1)C(=O)c1ccccc1C(F)(F)F [A47-21] | + |  |  |
| CN(C)N(Cc1c(Cl)cc(Cl)cc1Cl)C(=O)c1cnccc1C(F)(F)F [B1-10] |  | +++ |  |
| CN(C)N(Cc1ccc(Cl)cc1Cl)C(=O)c1cnccc1C(F)(F)F [B1-5] |  | +++ |  |
| CN(C)N(Cc1ccccc1Cl)C(=O)c1ccccc1I [A36-1] |  | + |  |
| CN(C)N(Cc1ccccc1C(F)(F)F)C(=O)c1ccccc1Cl [A10-81] | + |  |  |
| CC(c1ccc(F)cc1)N(C(=O)c1ccccc1C(F)(F)F)N(C)C (centres unmarked) [A1-159] | + |  |  |
| COC(=O)c1ccccc1CN(C(=O)c1ccccc1C(F)(F)F)N(C)C [A1-603] |  | ++ |  |
| CN(C)N(Cc1ncc(C(F)(F)F)cc1Cl)C(=O)c1ccc(Cl)cc1Cl [A12-36] |  |  | Effect (BRSNS) (Brassica napus; dosage 100 g/ha): + |
